Like-named read-outs stand apart in the source and are kept apart here.
Legend:
KRAS_G12C pERK = assay: Cellular pERK HTRF assay (KRAS_G12C pERK assay); format: cell-based, human; conditions: KRAS G12C cells, 4 hours incubation with compound, read-out: G12C_pERK
Protocol: MIA PaCa-2 (KRAS G12C; ATCC® CRL-1420), NCI-H358 (KRAS G12C; ATCC® CRL-5807), A427 (KRAS G12D; ATCC® HTB53), HPAFII (KRAS G12D; ATCC® CRL-1997), YAPC (KRAS G12V; DSMZ ACC382), SW480 (KRAS G12V; ATCC® CRL-228) and NCI-H838 (KRAS WT; ATCC® CRL-5844) cells are purchased from ATCC and maintained in RPMI 1640 media supplemented with 10% FBS (Gibco/Life Technologies). The cells are plated at 5000 cells per well (8 uL) into Greiner 384-well low volume, flat-bottom, and tissue culture treated white plates and incubated overnight at […], 5% CO2. The next morning, test compound stock solutions are diluted in media at 3× the final concentration and 4 uL are added to the cells, with a final concentration of 0.1% of DMSO. The cells are incubated with the test compounds for 4 hours (G12C and G12V) or 2 hrs (G12D) at 37° C., 5% CO2. Four uL of 4× lysis buffer with blocking reagent (Cisbio) are added to each well and plates are rotated gently (300 rpm) for 30 minutes at room temperature. Four uL per well of Cisbio anti Phospho-ERK 1/2 d2 is mixed with anti Phospho-ERK 1/2 Cryptate (1:1), and added to each well, incubated overnight in the dark at room temperature. Plates are read on the Pherastar plate reader at 665 nm and 620 nm wavelengths. Data are analyzed in Genedata Screener using SmartFit for IC50 values.

KRAS G12C = KRAS G12C (Homo sapiens, UniProt P01116, G12C); assay: GDP-GTP exchange assay (KRAS_G12C exchange assay); format: biochemical; conditions: bodipy-loaded KRAS G12C 2.5 nM, SOS1 150 nM, 2 hours pre-incubation with inhibitor; read-out: G12C_exchange
Protocol: The inhibitor potency of the exemplified compounds was determined in a fluorescence based guanine nucleotide exchange assay, which measures the exchange of bodipy-GDP (fluorescently labeled GDP) for GppNHp (Non-hydrolyzable GTP analog) to generate the active state of KRAS in the presence of SOS1 (guanine nucleotide exchange factor). Inhibitors were serially diluted in DMSO and a volume of 0.1 μL was transferred to the wells of a black low volume 384-well plate. 5 μL/well volume of bodipy-loaded KRAS G12C diluted to 5 nM in assay buffer (25 mM Hepes pH 7.5, 50 mM NaCl, 10 mM MgCl2 and 0.01% Brij-35) was added to the plate and pre-incubated with inhibitor for 2 hours at ambient temperature. Appropriate controls (enzyme with no inhibitor or with a G12C inhibitor (AMG-510)) were included on the plate. The exchange was initiated by the addition of a 5 μL/well volume containing 1 mM GppNHp and 300 nM SOS1 in assay buffer. The 10 μL/well reaction concentration of the bodipy-loaded KRAS G12C, GppNHp, and SOS1 were 2.5 nM, 500 uM, and 150 nM, respectively. The reaction plates were incubated at ambient temperature for 2 hours, a time estimated for complete GDP-GTP exchange in the absence of inhibitor. For the KRAS G12D and G12V mutants, similar guanine nucleotide exchange assays were used with 2.5 nM as final concentration for the bodipy loaded KRAS proteins and with 4 hours and 3 hours incubation after adding GppNHp-SOS1 mixture for G12D and G12V respectively. A cyclic peptide described to selectively bind G12D mutant (Sakamoto et al., BBRC 484.3 (2017), 605-611) or internal compounds with confirmed binding were used as positive controls in the assay plates. Fluorescence intensities were measured on a PheraStar plate reader instrument (BMG Labtech) with excitation at 485 nm and emission at 520 nm.
Either GraphPad prism or Genedata Screener SmartFit was used to analyze the data. The IC50 values were derived by fitting the data to a four parameter logistic equation producing a sigmoidal dose-response curve with a variable Hill coefficient.

[1] = tested on: KRAS_G12C pERK in MIA PaCa-2 cells; assay: Whole Blood pERK1/2 HTRF assay (KRAS_G12C WB pERK assay); format: cell-based, human; conditions: compound in whole blood, 4 hours, read-out: G12C_WB_pERK
Protocol: MIA PaCa-2 cells (KRAS G12C; ATCC® CRL-1420), HPAF-II (KRAS G12D; ATCC® CRL-1997) and YAPC (KRAS G12V; DSMZ ACC382) are maintained in RPMI 1640 with 10% FBS (Gibco/Life Technologies). For MIA PaCa-2 assay, cells are seeded into 96 well tissue culture plates (Corning #3596) at 25000 cells per well in 100 uL media and cultured for 2 days at 37° C., 5% CO2 before the assay. For HPAF-II and YAPC assay, cells are seeded in 96 well tissue culture plates at 50000 cells per well in 100 uL media and cultured for 1 day before the assay. Whole Blood are added to the 1 uL dots of compounds (prepared in DMSO) in 96 well plates and mixed gently by pipetting up and down so that the concentration of the compound in blood is 1× of desired concentration, in 0.5% DMSO. The media is aspirated from the cells and 50 uL per well of whole blood with test compound is added and incubated for 4 hours for MIA PaCa and YAPC assay; or 2 hours for HPAF-II assay, respectively at 37° C., 5% CO2. After dumping the blood, the plates are gently washed twice by adding PBS to the side of the wells and dumping the PBS from the plate onto a paper towel, tapping the plate to drain well. Fifty ul/well of 1× lysis buffer #1 (Cisbio) with blocking reagent (Cisbio) and Benzonase nuclease (Sigma Cat #E1014-5KU, 1:10000 final concentration) is then added and incubated at room temperature for 30 minutes with shaking (250 rpm). Following lysis, 16 uL of lysate is transferred into 384-well Greiner small volume white plate using an Assist Plus (Integra Biosciences, NH). Four uL of 1:1 mixture of anti Phospho-ERK 1/2 d2 and anti Phospho-ERK 1/2 Cryptate (Cisbio) is added to the wells using the Assist Plus and incubated at room temperature overnight in the dark. Plates are read on the Pherastar plate reader at 665 nm and 620 nm wavelengths. Data are analyzed in Genedata Screener using SmartFit for IC50 values.

Sequence of KRAS G12C (P01116 1-188 isoform P01116-2 G12C): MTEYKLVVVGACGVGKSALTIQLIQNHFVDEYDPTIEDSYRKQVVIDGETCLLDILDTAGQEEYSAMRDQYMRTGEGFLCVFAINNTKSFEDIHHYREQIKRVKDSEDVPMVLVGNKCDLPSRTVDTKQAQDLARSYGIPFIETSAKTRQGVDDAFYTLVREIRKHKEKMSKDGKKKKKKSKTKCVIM

Structure (SMILES)	IC50 (KRAS_G12C pERK; Homo sapiens, 4 h)	IC50 (KRAS G12C)	IC50 ([1]; Homo sapiens)	IC50 (KRAS_G12C pERK)	IC50 [1]
C=C(F)C(=O)N1CC[C@H](n2nnc3c(O[C@@H](C)[C@@H]4CCCN4C)nc4c(F)c(-c5c(F)ccc6ccc(C)nc56)c(C)cc4c32)C[C@H]1CC#N (single isomer, unassigned) [Example 25a]	≤ 50 nM	≤ 50 nM	50 to 100 nM	–	–
C=C(F)C(=O)N1CC[C@H](n2nnc3c(N4CC(C)(N(C)C)C4)nc4c(F)c(-c5cccc6cccc(C#N)c56)c(C)cc4c32)C[C@H]1CC#N (single isomer, unassigned) [Example 17a]	≤ 50 nM	≤ 50 nM	50 to 100 nM	–	–
COC/C=C/C(=O)N1CC[C@H](n2nnc3c(O[C@@H](C)[C@@H]4CCCN4C)nc4c(F)c(-c5nn(C)c6ccccc56)c(C)cc4c32)C[C@H]1CC#N [Example 9, 2-((2S,4S)-4-(6-fluoro-8-methyl-7-(1-methyl-1H-indazol-3-yl)-4-((S)-1-((S)-1-methylpyrrolidin-2-yl)ethoxy)-1H-[1,2,3]triazolo[4,5-c]quinolin-1-yl)-1-((E)-4-methoxybut-2-enoyl)piperidin-2-yl)acetonitrile]	≤ 50 nM	≤ 50 nM	≤ 50 nM	–	–
COC/C=C/C(=O)N1CC[C@H](n2nnc3c(N4CC(C)(N(C)C)C4)nc4c(F)c(-c5cccc(C)c5C)c(C)cc4c32)C[C@H]1CC#N [Example 6, 2-((2S,4S)-4-(4-(3-(dimethylamino)-3-methylazetidin-1-yl)-7-(2,3-dimethylphenyl)-6-fluoro-8-methyl-1H-[1,2,3]triazolo[4,5-c]quinolin-1-yl)-1-((E)-4-methoxybut-2-enoyl)piperidin-2-yl)acetonitrile]	≤ 50 nM	≤ 50 nM	100 to 1000 nM	–	–
C=C(F)C(=O)N1CC[C@H](n2nnc3c(O[C@@H](C)[C@@H]4CCCN4C)nc4c(F)c(-c5ncc(F)c6ccccc56)c(C)cc4c32)C[C@H]1CC#N [Example 22, 2-((2S,4S)-4-(6-fluoro-7-(4-fluoroisoquinolin-1-yl)-8-methyl-4-((S)-1-((S)-1-methylpyrrolidin-2-yl)ethoxy)-1H-[1,2,3]triazolo[4,5-c]quinolin-1-yl)-1-(2-fluoroacryloyl)piperidin-2-yl)acetonitrile]	≤ 50 nM	≤ 50 nM	≤ 50 nM	–	–
C=C(F)C(=O)N1CC[C@H](n2nnc3c(O[C@@H](C)[C@@H]4CCCN4C)nc4c(F)c(-c5c(F)ccc6cccnc56)c(C)cc4c32)C[C@H]1CC#N (single isomer, unassigned) [Example 27a]	≤ 50 nM	≤ 50 nM	50 to 100 nM	–	–
C=C(F)C(=O)N1CC[C@H](n2nnc3c(O[C@@H](C)[C@@H]4CCCN4C)nc4c(F)c(-c5c(C)ncc6ccccc56)c(C)cc4c32)C[C@H]1CC#N (single isomer, unassigned) [Example 23b]	≤ 50 nM	≤ 50 nM	≤ 50 nM	–	–
COC/C=C/C(=O)N1CC[C@H](n2nnc3c(O[C@@H](C)[C@@H]4CCCN4C)nc4c(F)c(-c5cnc(C)c6ccccc56)c(C)cc4c32)C[C@H]1CC#N (single isomer, unassigned) [Example 26a]	≤ 50 nM	≤ 50 nM	50 to 100 nM	–	–
COC/C=C/C(=O)N1CC[C@H](n2nnc3c(O[C@@H](C)[C@@H]4CCCN4C)nc4c(F)c(-c5c(C)ncc6ccccc56)c(C)cc4c32)C[C@H]1CC#N (single isomer, unassigned) [Example 24b]	–	≤ 50 nM	≤ 50 nM	≤ 50 nM	–
CN(C)C1(C)CN(c2nc3c(F)c(-c4ccc(F)c5cccnc45)c(C(F)(F)F)cc3c3c2nnn3[C@H]2CCN(C(=O)/C=C/CF)[C@H](CC#N)C2)C1 (single isomer, unassigned) [Example 1b]	–	≤ 50 nM	–	50 to 100 nM	–
CN(C)C1(C)CN(c2nc3c(Cl)c(-c4ccc(F)c5cccnc45)c(Cl)cc3c3c2nnn3[C@H]2CCN(C(=O)/C=C/CF)[C@H](CC#N)C2)C1 (single isomer, unassigned) [Example 19b]	–	≤ 50 nM	–	≤ 50 nM	–
COC/C=C/C(=O)N1CC[C@H](n2nnc3c(O[C@@H](C)[C@@H]4CCCN4C)nc4c(F)c(-c5c(F)cccc5OC)c(C)cc4c32)C[C@H]1CC#N (single isomer, unassigned) [Example 34a]	≤ 50 nM	≤ 50 nM	–	–	–
C[C@H](Oc1nc2c(F)c(-c3ccc(F)c4cccnc34)c(C(F)(F)F)cc2c2c1nnn2[C@H]1CCN(C(=O)/C=C/CF)[C@H](CC#N)C1)[C@@H]1CCCN1C (single isomer, unassigned) [Example 4b]	–	≤ 50 nM	–	≤ 50 nM	–
C=C(F)C(=O)N1CC[C@H](n2nnc3c(O[C@@H](C)[C@@H]4CCCN4C)nc4c(F)c(-c5c(F)ccc6cccnc56)c(C)cc4c32)C[C@H]1CC#N (single isomer, unassigned) [Example 27b]	–	≤ 50 nM	–	≤ 50 nM	50 to 100 nM
C=CC(=O)N1CCC(n2nnc3c(O[C@@H](C)[C@@H]4CCCN4C)nc4c(F)c(-c5cccc6cccc(C#N)c56)c(C)cc4c32)CC1 (single isomer, unassigned) [Example 11a]	100 to 1000 nM	≤ 50 nM	–	–	–
